Legend:
Type in all cases: functional
SNB-19 = experiment: Growth inhibition of human SNB-19 cells assessed as cell growth at 0.01 uM incubated for 48 hrs by sulforhodamine B assay relative to control; settings: read-out: Activity
U-251 = experiment: Growth inhibition of human U-251 cells assessed as cell growth at 0.01 uM incubated for 48 hrs by sulforhodamine B assay relative to control; settings: read-out: Activity
BT-549 [1] = experiment: Growth inhibition of human BT-549 cells assessed as cell growth at 0.01 uM incubated for 48 hrs by sulforhodamine B assay relative to control; settings: read-out: Activity
SR = experiment: Growth inhibition of human SR cells assessed as cell growth at 0.1 uM incubated for 48 hrs by sulforhodamine B assay relative to control; settings: read-out: Activity
NCI-H226 = experiment: Growth inhibition of human NCI-H226 cells assessed as cell growth at 0.1 uM incubated for 48 hrs by sulforhodamine B assay relative to control; settings: read-out: Activity
NCI-H522 = experiment: Growth inhibition of human NCI-H522 cells assessed as cell growth at 0.1 uM incubated for 48 hrs by sulforhodamine B assay relative to control; settings: read-out: Activity
HCT-116 = experiment: Growth inhibition of human HCT-116 cells assessed as cell growth at 0.1 uM incubated for 48 hrs by sulforhodamine B assay relative to control; settings: read-out: Activity
HCT-15 = experiment: Growth inhibition of human HCT-15 cells assessed as cell growth at 0.1 uM incubated for 48 hrs by sulforhodamine B assay relative to control; settings: read-out: Activity
SW-620 [2] = experiment: Growth inhibition of human SW-620 cells assessed as cell growth at 0.1 uM incubated for 48 hrs by sulforhodamine B assay relative to control; settings: read-out: Activity
IGROV-1 [3] = experiment: Growth inhibition of human IGROV-1 cells assessed as cell growth at 0.1 uM incubated for 48 hrs by sulforhodamine B assay relative to control; settings: read-out: Activity
ACHN [4] = experiment: Growth inhibition of human ACHN cells assessed as cell growth at 0.1 uM incubated for 48 hrs by sulforhodamine B assay relative to control; settings: read-out: Activity
MCF7 = experiment: Growth inhibition of human MCF7 cells assessed as cell growth at 0.1 uM incubated for 48 hrs by sulforhodamine B assay relative to control; settings: read-out: Activity
BT-549 [5] = experiment: Growth inhibition of human BT-549 cells assessed as cell growth at 0.1 uM incubated for 48 hrs by sulforhodamine B assay relative to control; settings: read-out: Activity
T47D [6] = experiment: Growth inhibition of human T47D cells assessed as cell growth at 0.1 uM incubated for 48 hrs by sulforhodamine B assay relative to control; settings: read-out: Activity
MOLT-4 = experiment: Growth inhibition of human MOLT-4 cells assessed as cell growth at 1 uM incubated for 48 hrs by sulforhodamine B assay relative to control; settings: read-out: Activity
A549 = experiment: Growth inhibition of human A549/ATCC cells assessed as cell growth at 1 uM incubated for 48 hrs by sulforhodamine B assay relative to control; settings: read-out: Activity
HCC 2998 [7] = experiment: Growth inhibition of human HCC 2998 cells assessed as cell growth at 1 uM incubated for 48 hrs by sulforhodamine B assay relative to control; settings: read-out: Activity
SW-620 [8] = experiment: Growth inhibition of human SW-620 cells assessed as cell growth at 1 uM incubated for 48 hrs by sulforhodamine B assay relative to control; settings: read-out: Activity
SF-295 = experiment: Growth inhibition of human SF-295 cells assessed as cell growth at 1 uM incubated for 48 hrs by sulforhodamine B assay relative to control; settings: read-out: Activity
MDA-MB-435 = experiment: Growth inhibition of human MDA-MB-435 cells assessed as cell growth at 1 uM incubated for 48 hrs by sulforhodamine B assay relative to control; settings: read-out: Activity
UACC-257 [9] = experiment: Growth inhibition of human UACC-257 cells assessed as cell growth at 1 uM incubated for 48 hrs by sulforhodamine B assay relative to control; settings: read-out: Activity
ACHN [10] = experiment: Growth inhibition of human ACHN cells assessed as cell growth at 1 uM incubated for 48 hrs by sulforhodamine B assay relative to control; settings: read-out: Activity
RXF 393 = experiment: Growth inhibition of human RXF 393 cells assessed as cell growth at 1 uM incubated for 48 hrs by sulforhodamine B assay relative to control; settings: read-out: Activity
PC-3 = experiment: Growth inhibition of human PC-3 cells assessed as cell growth at 1 uM incubated for 48 hrs by sulforhodamine B assay relative to control; settings: read-out: Activity
EKVX = experiment: Growth inhibition of human EKVX cells assessed as cell growth at 100 uM incubated for 48 hrs by sulforhodamine B assay relative to control; settings: read-out: Activity
SW-620 [11] = experiment: Growth inhibition of human SW-620 cells assessed as cell growth at 100 uM incubated for 48 hrs by sulforhodamine B assay relative to control; settings: read-out: Activity
M14 = experiment: Growth inhibition of human M14 cells assessed as cell growth at 100 uM incubated for 48 hrs by sulforhodamine B assay relative to control; settings: read-out: Activity
HCC 2998 [12] = experiment: Growth inhibition of human HCC 2998 cells incubated for 48 hrs by sulforhodamine B assay
HT-29 = experiment: Growth inhibition of human HT-29 cells incubated for 48 hrs by sulforhodamine B assay
SF-539 = experiment: Growth inhibition of human SF-539 cells incubated for 48 hrs by sulforhodamine B assay
UACC-257 [13] = experiment: Growth inhibition of human UACC-257 cells incubated for 48 hrs by sulforhodamine B assay
IGROV-1 [14] = experiment: Growth inhibition of human IGROV-1 cells incubated for 48 hrs by sulforhodamine B assay
NCI/ADR-RES = experiment: Growth inhibition of human NCI/ADR-RES cells incubated for 48 hrs by sulforhodamine B assay
SN12C = experiment: Growth inhibition of human SN12C cells incubated for 48 hrs by sulforhodamine B assay
T47D [15] = experiment: Growth inhibition of human T47D cells incubated for 48 hrs by sulforhodamine B assay
[16] = read-out: LC50 (the source's name)
[17] = read-out: pLC50 (the source's name) (converted)

CC(=O)Nc1cc(CCl)cc(NC(=O)c2ccc(C(=O)Nc3cccc(NC(=O)CCCN(C)C)c3)cc2)c1
growth at 0.01 µM (SNB-19): 106%
growth at 0.01 µM (U-251): 98%
growth at 0.01 µM (BT-549 [1]): 104%
growth at 0.1 µM (SR): 107%
growth at 0.1 µM (NCI-H226): 92%
growth at 0.1 µM (NCI-H522): 89%
growth at 0.1 µM (HCT-116): 107%
growth at 0.1 µM (HCT-15): 88%
growth at 0.1 µM (SW-620 [2]): 107%
growth at 0.1 µM (IGROV-1 [3]): 113%
growth at 0.1 µM (ACHN [4]): 101%
growth at 0.1 µM (MCF7): 87%
growth at 0.1 µM (BT-549 [5]): 103%
growth at 0.1 µM (T47D [6]): 103%
growth at 1 µM (MOLT-4): 99%
growth at 1 µM (A549): 94%
growth at 1 µM (HCC 2998 [7]): 96%
growth at 1 µM (SW-620 [8]): 107%
growth at 1 µM (SF-295): 70%
growth at 1 µM (MDA-MB-435): 97%
growth at 1 µM (UACC-257 [9]): 95%
growth at 1 µM (ACHN [10]): 96%
growth at 1 µM (RXF 393): 88%
growth at 1 µM (PC-3): 103%
growth at 100 µM (EKVX): 84%
growth at 100 µM (SW-620 [11]): 92%
growth at 100 µM (M14): 91%
GI50 (HCC 2998 [12]; read-out: GI50): > 100 µM
CC50 (HCC 2998 [12]; [16]): > 100 µM
TGI (HCC 2998 [12]; read-out: TGI): > 100 µM
GI50 (HCC 2998 [12]; read-out: pGI50 (converted)): > 100 µM
CC50 (HCC 2998 [12]; [17]): > 100 µM
TGI (HCC 2998 [12]; read-out: pTGI): > 100 µM
GI50 (HT-29; read-out: GI50): > 100 µM
CC50 (HT-29; [16]): > 100 µM
TGI (HT-29; read-out: TGI): > 100 µM
GI50 (HT-29; read-out: pGI50 (converted)): > 100 µM
CC50 (HT-29; [17]): > 100 µM
TGI (HT-29; read-out: pTGI): > 100 µM
GI50 (SF-539; read-out: GI50): > 100 µM
CC50 (SF-539; [16]): > 100 µM
TGI (SF-539; read-out: TGI): > 100 µM
GI50 (SF-539; read-out: pGI50 (converted)): > 100 µM
CC50 (SF-539; [17]): > 100 µM
TGI (SF-539; read-out: pTGI): > 100 µM
GI50 (UACC-257 [13]; read-out: GI50): > 100 µM
LC50 (UACC-257 [13]; read-out: LC50): > 100 µM
TGI (UACC-257 [13]; read-out: TGI): > 100 µM
GI50 (UACC-257 [13]; read-out: pGI50 (converted)): > 100 µM
LC50 (UACC-257 [13]; read-out: pLC50 (converted)): > 100 µM
TGI (UACC-257 [13]; read-out: pTGI): > 100 µM
GI50 (IGROV-1 [14]; read-out: GI50): > 100 µM
CC50 (IGROV-1 [14]; [16]): > 100 µM
TGI (IGROV-1 [14]; read-out: TGI): > 100 µM
GI50 (IGROV-1 [14]; read-out: pGI50 (converted)): > 100 µM
CC50 (IGROV-1 [14]; [17]): > 100 µM
TGI (IGROV-1 [14]; read-out: pTGI): > 100 µM
GI50 (NCI/ADR-RES; read-out: GI50): > 100 µM
CC50 (NCI/ADR-RES; [16]): > 100 µM
TGI (NCI/ADR-RES; read-out: TGI): > 100 µM
GI50 (NCI/ADR-RES; read-out: pGI50 (converted)): > 100 µM
CC50 (NCI/ADR-RES; [17]): > 100 µM
TGI (NCI/ADR-RES; read-out: pTGI): > 100 µM
GI50 (SN12C; read-out: GI50): > 100 µM
CC50 (SN12C; [16]): > 100 µM
TGI (SN12C; read-out: TGI): > 100 µM
GI50 (SN12C; read-out: pGI50 (converted)): > 100 µM
CC50 (SN12C; [17]): > 100 µM
TGI (SN12C; read-out: pTGI): > 100 µM
GI50 (T47D [15]; read-out: GI50): > 100 µM
CC50 (T47D [15]; [16]): > 100 µM
TGI (T47D [15]; read-out: TGI): > 100 µM
GI50 (T47D [15]; read-out: pGI50 (converted)): > 100 µM
CC50 (T47D [15]; [17]): > 100 µM
TGI (T47D [15]; read-out: pTGI): > 100 µM
